Laboratory results as given in patent US12162863B2, “Modulators of stimulator of interferon genes (STING)” (RYVU THERAPEUTICS S.A., priority 2018, dated 2024).

Key:
human STING = human STING (Homo sapiens, UniProt Q86WV6); assay: Fluorescence Thermal Shift assay; type: binding; conditions: 50 μM compound; STING 0.1 mg/ml; 20 minutes preincubation; read-out: [hSTING] FTS, ΔTm [° C.] for 50 μM
Method in brief: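 Human STING at a final 0.1 mg/ml was preincubated with compound for 20 min in 50 mM Hepes, 150 mM NaCl, pH 7.5, then SyproOrange dye was added. Thermal unfolding ran from 25 to 99° C at 0.033° C/s, continuous ramp. Values are reported as ΔTm (° C).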

[1] = test system: interferon regulatory factor (IRF) pathway in THP-1 dual cells; assay: THP-1 Dual Reporter Assay, IRF pathway (luciferase reporter); type: cell-based; conditions: Homo sapiens, THP1-Dual, 18 h of stimulation, luminescence
Method in brief: (§1)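 THP-1 dual cells stimulated 18 h with STING agonist; medium then sampled. IRF pathway: luciferase (ISG54 promoter/ISRE) read as luminescence immediately after reagent addition. NF-κB pathway: SEAP (IFN-β minimal promoter/NF-κB elements) developed 2 h at 37 °C, absorbance at 630 nm.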

[2] = test system: NF-κB pathway in THP-1 dual cells; assay: THP-1 Dual Reporter Assay, NF-κB pathway (SEAP reporter); type: cell-based; conditions: Homo sapiens, THP1-Dual, 18 h of stimulation, absorbance at 630 nm, read-out: THP1 Dual EC50 (μM) NFkB
Method in brief: as §1

Chain of human STING (Q86WV6 whole entry H232R): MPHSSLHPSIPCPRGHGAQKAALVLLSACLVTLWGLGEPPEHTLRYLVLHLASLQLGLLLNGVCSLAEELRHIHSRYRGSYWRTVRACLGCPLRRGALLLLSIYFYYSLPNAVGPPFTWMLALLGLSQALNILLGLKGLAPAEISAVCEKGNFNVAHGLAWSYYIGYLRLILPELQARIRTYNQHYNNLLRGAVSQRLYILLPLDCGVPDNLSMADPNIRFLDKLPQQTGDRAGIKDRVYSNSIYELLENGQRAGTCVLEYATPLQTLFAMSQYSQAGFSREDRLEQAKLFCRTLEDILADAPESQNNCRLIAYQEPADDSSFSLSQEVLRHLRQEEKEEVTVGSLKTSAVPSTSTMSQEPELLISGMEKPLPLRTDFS

| SMILES | ΔTm at 50 µM (human STING) [°C] | EC50 [1] [µM] | EC50 [2] [µM] |
| --- | --- | --- | --- |
| COc1cc(CN(CCCn2cnc3ccccc32)Cc2coc3c(ccc4ccccc43)c2=O)ccn1 [Example 53, 3-({[3-(1H-1,3-benzodiazol-1-yl)propyl][(2-methoxypyridin-4-yl)methyl]amino}methyl)-4H-benzo[h]chromen-4-one] | > 2.5 | ≤ 10 | ≤ 10 |
| Cc1oc2cc(N3CCN(C)CC3)c(F)cc2c(=O)c1CN(CCCc1cccnc1)Cc1ccncc1 [Example 65, 6-fluoro-2-methyl-7-(4-methylpiperazin-1-yl)-3-({[3-(pyridin-3-yl)propyl][(pyridin-4-yl)methyl]amino}methyl)-4-chromen-4-one] | > 2.5 | ≤ 10 | ≤ 10 |
| O=c1c(CN(CCCc2ccncc2)Cc2ccncc2)coc2ccccc12 [Example 21, 3-({[(pyridin-4-yl)methyl][3-(pyridin-4-yl)propyl]amino}methyl)-4H-chromen-4-one] | > 2.5 | ≤ 10 | 10 to 20 |
| COc1ccc(-c2ccc3c(=O)c(CN(CCCn4ccnc4)Cc4ccncc4)coc3c2)cc1 [Example 32, 3-({[3-(1H-imidazol-1-yl)propyl](pyridin-4-ylmethyl)amino}methyl)-7-(4-methoxyphenyl)-4H-chromen-4-one] | > 2.5 | 10 to 20 | ≥ 20 |
| COc1cc(CN(CCCn2cnc3ccccc32)Cc2cn(C)c3ccccc3c2=O)ccn1 [Example 82, 3-({[3-(1H-1,3-benzodiazol-1-yl)propyl][(2-methoxypyridin-4-yl)methyl]amino}methyl)-1-methyl-1,4-dihydroquinolin-4-one] | > 2.5 | ≤ 10 | ≤ 10 |
| O=c1c(CN(CCCc2cccnc2)Cc2ccncc2)coc2c1cc(F)c1ccccc12 [Example 54, 6-fluoro-3-({[3-(pyridin-3-yl)propyl][(pyridin-4-yl)methyl]amino}methyl)-4H benzo[h]chromen-4-one] | > 2.5 | ≤ 10 | ≤ 10 |
| Cn1cc(CN(CCCn2ccnc2)Cc2ccncc2)c(=O)c2ccccc21 [Example 31, 3-({[3-(1H-imidazol-1-yl)propyl][(pyridin-4-yl)methyl]amino}methyl)-1-methyl-1,4-dihydroquinolin-4-one] | > 2.5 | ≥ 20 | ≥ 20 |
| COc1ccc(-c2cc3occ(CN(CCCn4ccnc4)Cc4ccncc4)c(=O)c3cc2F)cc1 [Example 42, 6-fluoro-3-({[3-(1H-imidazol-1-yl)propyl][(pyridin-4-yl)methyl]amino}methyl)-7-(4-methoxyphenyl)-4H-chromen-4-one] | > 2.5 | ≤ 10 | ≤ 10 |
| Cc1oc2cc(F)c(F)cc2c(=O)c1CN(CCCn1cnc2ccccc21)Cc1ccncc1 [Example 99, 3-({[3-(1H-1,3-benzodiazol-1-yl)propyl][(pyridin-4-yl)methyl]amino}methyl)-6,7-difluoro-2-methyl-4H-chromen-4-one] | > 2.5 | ≤ 10 | ≤ 10 |
| O=c1c(CN(CCCc2cccnc2)Cc2ccncc2)coc2ccccc12 [Example 19, 3-({[3-(pyridin-3-yl)propyl][(pyridin-4-yl)methyl]amino}methyl)-4H-chromen-4-one] | > 2.5 | ≤ 10 | 10 to 20 |
| O=c1c(CN(CCCn2cccc2)Cc2ccncc2)coc2ccccc12 [Example 2, 3-({[(pyridin-4-yl)methyl][3-(1H-pyrrol-1-yl)propyl]amino}methyl)-4H-chromen-4-one] | < 2.5 | 10 to 20 | ≥ 20 |
| Cc1cc(CN(CCCc2cccnc2)Cc2cn(C)c3ccccc3c2=O)ccn1 [Example 101, 1-methyl-3-({[(2-methylpyridin-4-yl)methyl][3-(pyridin-3-yl)propyl]amino}methyl)-1,4-dihydroquinolin-4-one] | > 2.5 | ≤ 10 | 10 to 20 |
| COc1cc(CN(CCCn2ccnc2)Cc2coc3cc(O)ccc3c2=O)ccn1 [Example 27, 7-hydroxy-3-({[3-(1H-imidazol-1-yl)propyl][(2-methoxypyridin-4-yl)methyl]amino}methyl)-4H-chromen-4-one] | > 2.5 | 10 to 20 | ≥ 20 |

The remaining lines, values ahead:

| ΔTm at 50 µM (human STING) [°C] | EC50 [1] [µM] | EC50 [2] [µM] | SMILES |
| --- | --- | --- | --- |
| > 2.5 | ≥ 20 | ≥ 20 | COc1cccc(-c2cc3occ(CN(CCCn4ccnc4)Cc4ccncc4)c(=O)c3cc2F)c1 [Example 57, 6-fluoro-3-({[3-(1H-imidazol-1-yl)propyl][(pyridin-4-yl)methyl]amino}methyl)-7-(3-methoxyphenyl)-4H-chromen-4-one] |
| > 2.5 | ≤ 10 | ≤ 10 | Cc1ccc2c(=O)c(CN(CCCn3ccnc3)Cc3ccncc3)coc2c1C [Example 5, 3-({[3-(1H-imidazol-1-yl)propyl](pyridin-4-ylmethyl)amino}methyl)-7,8-dimethyl-4H-chromen-4-one] |
| > 2.5 | ≤ 10 | ≤ 10 | COc1ccc(-c2ccc3c(=O)c(CN(CCCn4ccnc4)Cc4ccncc4)c(C)oc3c2)cc1 [Example 56, 3-({[3-(1H-imidazol-1-yl)propyl][(pyridin-4-yl)methyl]amino}methyl)-7-(4-methoxyphenyl)-2-methyl-4H-chromen-4-one] |
| > 2.5 | ≤ 10 | ≤ 10 | O=c1c(CN(CCCn2ccnc2)Cc2ccncc2)coc2cc(OCc3ccccc3)ccc12 [Example 13, 7-(benzyloxy)-3-({[3-(1H-imidazol-1-yl)propyl](pyridin-4-ylmethyl)amino}methyl)-4H-chromen-4-one] |
| > 2.5 | 10 to 20 | ≥ 20 | COc1cc(CN(CCCc2cccnc2)Cc2n[nH]c3ccccc3c2=O)ccn1 [Example 98, 3-({[(2-methoxypyridin-4-yl)methyl][3-(pyridin-3-yl)propyl]amino}methyl)-1,4-dihydrocinnolin-4-one] |
| > 2.5 | ≤ 10 | ≤ 10 | CN1CCN(c2cc3occ(CN(CCCc4cccnc4)Cc4ccncc4)c(=O)c3cc2F)CC1 [Example 58, 6-fluoro-7-(4-methylpiperazin-1-yl)-3-({[3-(pyridin-3-yl)propyl](pyridin-4-ylmethyl)amino}methyl)-4H-chromen-4-one] |
| > 2.5 | ≤ 10 | ≤ 10 | Cc1oc2cc(Br)ccc2c(=O)c1CN(CCCc1cccnc1)Cc1ccncc1 [Example 64, 7-bromo-2-methyl-3-({[3-(pyridin-3-yl)propyl](pyridin-4-ylmethyl)amino}methyl)-4H-chromen-4-one] |
| > 2.5 | ≤ 10 | ≤ 10 | Cc1oc2cc(N3CCNCC3)c(F)cc2c(=O)c1CN(CCCc1cccnc1)Cc1ccncc1 [Example 69, 6-fluoro-2-methyl-7-(piperazin-1-yl)-3-({[3-(pyridin-3-yl)propyl][(pyridin-4-yl)methyl]amino}methyl)-4H-chromen-4-one] |
| < 2.5 | 10 to 20 | ≥ 20 | O=c1c(CN(CCCn2ccnc2)Cc2ccncc2)coc2cc(F)ccc12 [Example 11, 7-fluoro-3-({[3-(1H-imidazol-1-yl)propyl](pyridin-4-ylmethyl)amino}methyl)-4H-chromen-4-one] |
| > 2.5 | ≤ 10 | ≤ 10 | CN1CCN(c2cc3occ(CN(CCCn4ccnc4)Cc4ccncc4)c(=O)c3cc2F)CC1 [Example 49, 6-fluoro-3-({[3-(1H-imidazol-1-yl)propyl][(pyridin-4-yl)methyl]amino}methyl)-7-(4-methylpiperazin-1-yl)-4H-chromen-4-one] |
| > 2.5 | ≤ 10 | ≥ 20 | COc1cc(CN(CCCc2cccnc2)Cc2nn(C)c3ccccc3c2=O)ccn1 [Example 94, 3-({[(2-methoxypyridin-4-yl)methyl][3-(pyridin-3-yl)propyl]amino}methyl)-1-methyl-1,4-dihydrocinnolin-4-one] |
| < 2.5 | ≥ 20 | ≥ 20 | CN(C)c1ccc(CCCN(Cc2ccncc2)Cc2coc3c(ccc4ccccc43)c2=O)cn1 [Example 60, 3-[({3-[6-(dimethylamino)pyridin-3-yl]propyl}[(pyridin-4-yl)methyl]amino)methyl]-4H-benzo[h]chromen-4-one] |
